Laboratory results: patent US10040781B2, “Tank-binding kinase inhibitor compounds” (Gilead Sciences, Inc., priority 2014, dated 2018)

Tests used:
[1] = target: TBK1 (Homo sapiens (Human), UniProt Q9UHD2); assay: TBK1 TR-FRET enzymatic assay;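 note: phosphorylation of a biotinylated Ser/Thr peptide by purified full-length recombinant TBK1, read by TR-FRET after 240 min at 25 °C, IC50 is the geometric mean of at least four runs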
Procedure: Enzymatic activity of IKKε and TBK1 was measured using a homogeneous time resolved fluorescence resonance energy transfer (TR-FRET) assay that monitors enzyme dependent phosphorylation of a biotinylated serine/threonine peptide substrate. […] TBK1 and IKKε were expressed and purified as full length recombinant proteins. Detection reagents for the assay were purchased from Cisbio. […] After an assay reaction time of 240 minutes at 25° C., reactions were terminated with EDTA.
All IC50 values represent geometric mean values of a minimum of four determinations.

[2] = target: IKKε (Homo sapiens (Human), UniProt Q14164); assay: IKKε TR-FRET enzymatic assay; format: biochemical; settings: read-out: IKKe IC50
IKKε, sequence (Q14164 whole entry): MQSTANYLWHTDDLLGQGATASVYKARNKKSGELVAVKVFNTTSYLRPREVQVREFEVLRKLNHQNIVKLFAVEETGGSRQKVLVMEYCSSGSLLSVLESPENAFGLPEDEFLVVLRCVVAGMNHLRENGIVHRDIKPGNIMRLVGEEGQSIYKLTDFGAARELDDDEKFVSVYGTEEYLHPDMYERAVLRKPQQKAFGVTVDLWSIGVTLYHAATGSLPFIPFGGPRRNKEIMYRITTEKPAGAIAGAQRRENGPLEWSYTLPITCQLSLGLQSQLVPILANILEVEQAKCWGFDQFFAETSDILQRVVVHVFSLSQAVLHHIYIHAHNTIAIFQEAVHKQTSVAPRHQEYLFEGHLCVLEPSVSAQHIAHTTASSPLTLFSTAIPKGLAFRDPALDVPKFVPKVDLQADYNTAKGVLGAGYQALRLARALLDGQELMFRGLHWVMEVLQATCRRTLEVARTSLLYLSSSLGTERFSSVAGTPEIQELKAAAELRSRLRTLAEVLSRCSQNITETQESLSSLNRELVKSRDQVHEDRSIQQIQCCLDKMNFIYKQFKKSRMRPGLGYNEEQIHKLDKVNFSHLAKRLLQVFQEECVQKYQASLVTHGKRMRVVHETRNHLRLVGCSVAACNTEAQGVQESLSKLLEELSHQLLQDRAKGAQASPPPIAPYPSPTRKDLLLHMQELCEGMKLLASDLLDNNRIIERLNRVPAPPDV

[3] = target: hJAK2 (Homo sapiens (Human), UniProt O60674); assay: hJAK2 LANCE TR-FRET enzymatic assay; format: biochemical; settings: read-out: JAK2 IC50
hJAK2, sequence (O60674 whole entry): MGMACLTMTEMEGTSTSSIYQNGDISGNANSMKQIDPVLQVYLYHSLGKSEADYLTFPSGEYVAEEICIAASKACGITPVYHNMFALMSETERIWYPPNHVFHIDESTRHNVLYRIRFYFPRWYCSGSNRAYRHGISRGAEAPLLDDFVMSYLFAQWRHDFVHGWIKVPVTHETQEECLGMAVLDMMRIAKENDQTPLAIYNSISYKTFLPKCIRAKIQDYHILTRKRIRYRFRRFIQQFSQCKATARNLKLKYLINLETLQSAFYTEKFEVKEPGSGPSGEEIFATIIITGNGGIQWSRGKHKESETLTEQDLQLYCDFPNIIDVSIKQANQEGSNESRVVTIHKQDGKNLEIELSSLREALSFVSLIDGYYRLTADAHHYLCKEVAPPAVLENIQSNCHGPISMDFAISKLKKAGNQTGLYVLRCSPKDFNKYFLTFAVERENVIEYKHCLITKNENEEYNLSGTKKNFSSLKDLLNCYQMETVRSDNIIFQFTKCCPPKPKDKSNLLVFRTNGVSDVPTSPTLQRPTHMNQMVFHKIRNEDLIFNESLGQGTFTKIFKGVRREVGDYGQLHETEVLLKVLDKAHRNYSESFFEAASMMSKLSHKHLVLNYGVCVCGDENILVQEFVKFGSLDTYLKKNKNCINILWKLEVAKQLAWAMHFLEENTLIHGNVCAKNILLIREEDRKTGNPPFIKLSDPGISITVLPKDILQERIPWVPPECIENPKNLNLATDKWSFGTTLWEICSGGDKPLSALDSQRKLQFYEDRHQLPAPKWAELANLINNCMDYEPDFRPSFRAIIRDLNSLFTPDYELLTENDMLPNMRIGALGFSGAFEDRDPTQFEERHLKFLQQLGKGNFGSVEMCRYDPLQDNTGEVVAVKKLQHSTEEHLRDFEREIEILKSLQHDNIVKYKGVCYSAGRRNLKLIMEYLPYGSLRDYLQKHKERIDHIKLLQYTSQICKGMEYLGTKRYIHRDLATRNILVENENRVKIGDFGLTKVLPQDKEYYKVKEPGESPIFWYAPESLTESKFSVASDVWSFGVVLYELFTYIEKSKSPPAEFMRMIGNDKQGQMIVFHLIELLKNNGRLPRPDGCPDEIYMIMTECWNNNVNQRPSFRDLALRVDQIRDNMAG

TBK1, sequence (Q9UHD2 whole entry): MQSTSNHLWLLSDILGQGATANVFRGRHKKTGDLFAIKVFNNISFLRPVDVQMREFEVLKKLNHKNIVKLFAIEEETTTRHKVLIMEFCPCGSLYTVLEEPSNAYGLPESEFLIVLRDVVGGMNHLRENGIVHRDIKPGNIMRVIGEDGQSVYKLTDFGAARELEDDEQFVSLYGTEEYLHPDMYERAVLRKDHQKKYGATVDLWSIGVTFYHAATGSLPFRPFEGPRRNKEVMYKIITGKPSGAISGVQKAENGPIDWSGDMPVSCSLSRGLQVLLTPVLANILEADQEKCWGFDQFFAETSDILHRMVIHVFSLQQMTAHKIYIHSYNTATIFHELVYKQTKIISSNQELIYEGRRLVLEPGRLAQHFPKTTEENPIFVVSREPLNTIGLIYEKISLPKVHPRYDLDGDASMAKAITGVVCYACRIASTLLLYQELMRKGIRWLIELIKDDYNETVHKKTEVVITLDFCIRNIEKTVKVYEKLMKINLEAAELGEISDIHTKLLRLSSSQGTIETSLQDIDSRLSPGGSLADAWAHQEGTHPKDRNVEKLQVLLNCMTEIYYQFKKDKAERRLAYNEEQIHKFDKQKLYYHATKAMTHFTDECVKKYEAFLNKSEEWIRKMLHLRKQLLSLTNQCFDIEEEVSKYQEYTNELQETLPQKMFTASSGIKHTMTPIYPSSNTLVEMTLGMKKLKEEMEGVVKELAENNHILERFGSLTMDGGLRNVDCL

IC50 [1] [nM]	IC50 [2] [nM]	IC50 [3] [nM]	Structure (SMILES)
27	75	≥ 1000	N#Cc1cc(-c2ncnc(Nc3ccc(N4CCN(C5COC5)CC4)cc3)n2)ccc1OC1CCC2(CC1)OCCO2 [Example 279, 2-(1,4-dioxaspiro[4.5]decan-8-yloxy)-5-(4-((4-(4-(oxetan-3-yl)piperazin-1-yl)phenyl)amino)-1,3,5-triazin-2-yl)benzonitrile]
4	10	110	N#Cc1cc(-c2ncnc(Nc3ccc(N4CCN(C5COC5)CC4)cc3)n2)ccc1OCC1(F)COC1 [Example 280, 2-((3-fluorooxetan-3-yl)methoxy)-5-(4-((4-(4-(oxetan-3-yl)piperazin-1-yl)phenyl)amino)-1,3,5-triazin-2-yl)benzonitrile]
2	8	185	COc1cc(Nc2ncnc(-c3ccc(OC4CCN(C(=O)[C@H](C)O)CC4)c(C#N)c3)n2)ccc1N1CCN(C2COC2)CC1 [Example 281, (S)-2-((1-(2-hydroxypropanoyl)piperidin-4-yl)oxy)-5-(4-((3-methoxy-4-(4-(oxetan-3-yl)piperazin-1-yl)phenyl)amino)-1,3,5-triazin-2-yl)benzonitrile]
14	16	219	C[C@H](Oc1ccc(-c2ncnc(Nc3ccc(N4CCN(C5COC5)CC4)cc3)n2)cc1C#N)C1CCOCC1 [Example 282, (S)-5-(4-((4-(4-(oxetan-3-yl)piperazin-1-yl)phenyl)amino)-1,3,5-triazin-2-yl)-2-(1-(tetrahydro-2H-pyran-4-yl)ethoxy)benzonitrile]
22	115	450	C[C@@H](Oc1ccc(-c2ncnc(Nc3ccc(N4CCN(C5COC5)CC4)cc3)n2)cc1C#N)C1CCOCC1 [Example 283, (R)-5-(4-((4-(4-(oxetan-3-yl)piperazin-1-yl)phenyl)amino)-1,3,5-triazin-2-yl)-2-(1-(tetrahydro-2H-pyran-4-yl)ethoxy)benzonitrile]
4	8	313	N#Cc1cc(-c2ncnc(Nc3ccc(N4CCN(C5COC5)CC4)cc3)n2)ccc1OCC1CCOCC1 [Example 285, 5-(4-((4-(4-(oxetan-3-yl)piperazin-1-yl)phenyl)amino)-1,3,5-triazin-2-yl)-2-((tetrahydro-2H-pyran-4-yl)methoxy)benzonitrile]
94	237	≥ 1000	CC(C)[C@H](Oc1ccc(-c2ncnc(Nc3ccc(N4CCN(C5COC5)CC4)cc3)n2)cc1C#N)C(N)=O [Example 286, (S)-2-(2-cyano-4-(4-((4-(4-(oxetan-3-yl)piperazin-1-yl)phenyl)amino)-1,3,5-triazin-2-yl)phenoxy)-3-methylbutanamide]
15	20	≥ 1000	N#Cc1cc(-c2ncnc(Nc3ccc(N4CC(O)C4)nc3)n2)ccc1OC1CCOCC1 [Example 287, 5-(4-((6-(3-hydroxyazetidin-1-yl)pyridin-3-yl)amino)-1,3,5-triazin-2-yl)-2-((tetrahydro-2H-pyran-4-yl)oxy)benzonitrile]
3	2	316	N#Cc1cc(-c2ncnc(Nc3ccc(N4CCN(C5COC5)CC4)cc3)n2)ccc1O[C@H]1CCN(C(=O)C(F)F)C[C@H]1F [Example 288, 2-(((3R,4S)-1-(2,2-difluoroacetyl)-3-fluoropiperidin-4-yl)oxy)-5-(4-((4-(4-(oxetan-3-yl)piperazin-1-yl)phenyl)amino)-1,3,5-triazin-2-yl)benzonitrile]
4	5	444	CC(=O)N1CC[C@H](Oc2ccc(-c3ncnc(Nc4ccc(N5CCN(C6COC6)CC5)cc4)n3)cc2C#N)[C@H](F)C1 [Example 289, 2-(((3R,4S)-1-acetyl-3-fluoropiperidin-4-yl)oxy)-5-(4-((4-(4-(oxetan-3-yl)piperazin-1-yl)phenyl)amino)-1,3,5-triazin-2-yl)benzonitrile]
266	603	474	N#Cc1cc(-c2ncnc(Nc3ccc(N4CCN(C5COC5)CC4)cc3)n2)ccc1O[C@H]1CCCC[C@H]1N [Example 291, 2-(((1S,2R)-2-aminocyclohexyl)oxy)-5-(4-((4-(4-(oxetan-3-yl)piperazin-1-yl)phenyl)amino)-1,3,5-triazin-2-yl)benzonitrile]
3	2	≥ 1000	C[C@H](O)C(=O)N1CC[C@H](Oc2ccc(-c3ncnc(Nc4ccc(C5CCOCC5)cc4)n3)cc2C#N)[C@H](F)C1 [Example 293, 2-(((3R,4S)-3-fluoro-1-((S)-2-hydroxypropanoyl)piperidin-4-yl)oxy)-5-(4-((4-(tetrahydro-2H-pyran-4-yl)phenyl)amino)-1,3,5-triazin-2-yl)benzonitrile]
4	5	228	C[C@H](O)C(=O)N1CC[C@H](Oc2ccc(-c3ncnc(Nc4cnn(C(C)(C)C)c4)n3)cc2C#N)[C@H](F)C1 [Example 294, 5-(4-((1-(tert-butyl)-1H-pyrazol-4-yl)amino)-1,3,5-triazin-2-yl)-2-(((3R,4S)-3-fluoro-1-((S)-2-hydroxypropanoyl)piperidin-4-yl)oxy)benzonitrile]
3	1	274	N#Cc1cc(-c2ncnc(Nc3ccc(N4CCNCC4)c(F)c3)n2)ccc1O[C@H]1CCN(C=O)C[C@H]1F [Example 296, 2-(((3R,4S)-3-fluoro-1-formylpiperidin-4-yl)oxy)-5-(4-((3-fluoro-4-(piperazin-1-yl)phenyl)amino)-1,3,5-triazin-2-yl)benzonitrile]
2	4	397	N#Cc1cc(-c2ncnc(Nc3ccc(N4CCN(C5COC5)CC4)cc3)n2)ccc1O[C@H]1CCOC[C@H]1F [Example 297, 2-(((3R,4S)-3-fluorotetrahydro-2H-pyran-4-yl)oxy)-5-(4-((4-(4-(oxetan-3-yl)piperazin-1-yl)phenyl)amino)-1,3,5-triazin-2-yl)benzonitrile]
4	8	401	N#Cc1cc(-c2ncnc(Nc3ccc(N4CCN(C=O)CC4)c(F)c3)n2)ccc1O[C@H]1CCOC[C@H]1F [Example 299, 5-(4-((3-fluoro-4-(4-formylpiperazin-1-yl)phenyl)amino)-1,3,5-triazin-2-yl)-2-(((3R,4S)-3-fluorotetrahydro-2H-pyran-4-yl)oxy)benzonitrile]
4	3	453	CN1CCC(c2ccc(Nc3ncnc(-c4ccc(O[C@H]5CCOC[C@H]5F)c(C#N)c4)n3)cc2)CC1 [Example 300, 2-(((3R,4S)-3-fluorotetrahydro-2H-pyran-4-yl)oxy)-5-(4-((4-(1-methylpiperidin-4-yl)phenyl)amino)-1,3,5-triazin-2-yl)benzonitrile]
3	1	268	N#Cc1cc(-c2ncnc(Nc3ccc(N4CCN(C5CCOCC5)CC4)c(F)c3)n2)ccc1O[C@H]1CCN(C(=O)CO)C[C@H]1F [Example 307, 2-(((3R,4S)-3-fluoro-1-(2-hydroxyacetyl)piperidin-4-yl)oxy)-5-(4-((3-fluoro-4-(4-(tetrahydro-2H-pyran-4-yl)piperazin-1-yl)phenyl)amino)-1,3,5-triazin-2-yl)benzonitrile]
